{"source": "patent US11767330B2", "about": "“Citrate salt, pharmaceutical compositions, and methods of making and using the same” (Foghorn Therapeutics Inc., priority 2021, dated 2023)", "key": {"[1]": {"experiment": "Solubility / precipitation of IV formulations on pH adjustment", "type": "physicochemical", "details": "pH lowered with hydrochloric acid solution", "experimental": "Summary of Experiments. […] The pH of the compounding solution would later be adjusted by sodium hydroxide solution to the target pH. […] Only samples containing 20% SBECD (samples S-1.1 and S-2.1) were fully soluble at the desired pH.\nSample Preparation. To a 20 mL scintillation vial was added 60 mg of the racemate of the free base of the compound of Formula I and a magnetic stir bar. 3 mL of formulation solution (either 0%, 10% or 20% w/w SBECD in H2O) was added. The pH of the mixture was adjusted to approximately pH 3 by the addition of 1N HCl. Upon full dissolution (with magnetic stirring, sonication if necessary), the IV formulation was adjusted to the final pH by the addition of 1N NaOH solution. The IV formulation was filtered through a syringe filter, separated into 3 samples of approximately equal volume, and the samples were transferred to a stability chamber at 2-5° C., 25° C., or 40° C. At the specified time point the sample was removed from the stability chamber, an aliquot of the IV formulation was removed and diluted to 0.5 mg/mL with H2O for HPLC analysis.\nAs noted above, significant precipitation of compound D1 occurred upon adjusting the IV formulation to the final pH level of 5 or 6 for IV formulations containing <20% SBECD. […] IV formulations were filtered prior to conducting the stability studies."}, "[2]": {"tested_on": "synovial sarcoma cell lines (SYO1, Yamato, HS-SY-II, and ASKA)", "experiment": "Growth of synovial sarcoma cell lines, IncuCyte confluency / crystal violet / colony imaging (Example 2)", "type": "cell-based", "details": "FIGS. 4, 5, 6", "experimental": "(§1) Cells were treated with DMSO or the BRD9 degrader, Compound 1, at indicated concentrations, and proliferation was monitored from day 7 to day 14 by measuring confluency overtime using an IncuCyte live cell analysis system (FIG. 4). Growth medium and compounds were refreshed every 3-4 days.\n(§2) Cells were seeded into 12-well plates and treated with DMSO, 1 μM BRD9 inhibitor, Compound 2 (also known as BI-7273, see Martin et al, J Med Chem. 59(10):4462-4475 (2016); see structure of compound 2 below), or 1 μM BRD9 degrader, Compound 1.\n(§3) The number of cells was optimized for each cell line. Growth medium and compounds were refreshed every 3-5 days. SYO1, Yamato, A549, 293T and HS-SY-II cells were fixed and stained at day 11. ASKA cells were fixed and stained at day 23. Staining was done by incubation with crystal violet solution (0.5 g Crystal Violet, 27 ml 37% Formaldehyde, 100 mL 10×PBS, 10 mL Methanol, 863 dH20 to 1 L) for 30 min followed by 3× washes with water and drying the plates for at least 24 h at room temperature. Subsequently plates were scanned on an Odyssey CLx Imaging system (FIG. 5).\n(§4) Cells were seeded into 96-well ultra-low cluster plate (Costar, #7007) in 200 μL complete media and treated at day 2 with DMSO, Staurosporin, or BRD9 degrader, Compound 1, at indicated doses (FIG. 2C). Media and compounds were changed every 5 d and cell colonies were imaged at day 14."}, "[3]": {"tested_on": "non-synovial control cancer cell lines (293T, A549, G401)", "experiment": "Growth of non-synovial control cancer cell lines (Example 2)", "type": "cell-based", "experimental": "as §1, §2, §3, §4"}, "[4]": {"tested_on": "synovial sarcoma cell lines (SYO1, HS-SY-II, and ASKA)", "experiment": "Growth of synovial sarcoma cell lines, crystal violet day 14 (Example 3)", "type": "cell-based", "details": "daily treatment", "experimental": "(§5) Procedure: Cells were seeded into 6-well or 12-well plates and were treated daily with a BRD9 degrader (Compound 1), a bromo-domain BRD9 binder (Compound 2), E3 ligase binder (lenalidomide), DMSO, or staurosporin (positive control for cell killing), at indicated concentrations. The number of cells was optimized for each cell line. Growth media was refreshed every 5 days. By day 14, medium was removed, cells were washed with PBS, and stained using 500 μL of 0.005% (w/v) crystal violet solution in 25% (v/v) methanol for at least 1 hour at room temperature. Subsequently plates were scanned on an Odyssey CLx Imaging system."}, "[5]": {"tested_on": "non-synovial control cancer cell lines (RD, HCT116, and Calu6)", "experiment": "Growth of non-synovial control cancer cell lines, crystal violet day 14 (Example 3)", "type": "cell-based", "details": "daily treatment", "experimental": "as §5"}, "SYO1 cells [6]": {"tested_on": "SYO1 cells", "experiment": "Cell cycle analysis, Click-iT Plus EdU Flow Cytometry Assay", "type": "cell-based, human", "details": "SYO1, 200 nM or 1 μM, 8 or 13 days, compared to DMSO and lenalidomide", "experimental": "(§6) Procedure: SYO1 cells were treated for 8 or 13 days with DMSO, a BRD9 degrader (Compound 1) at 200 nM or 1 μM, or an E3 ligase binder (lenalidomide) at 200 nM. Compounds were refreshed every 5 days. Cell cycle analysis was performed using the Click-iT™ Plus EdU Flow Cytometry Assay (Invitrogen). The apoptosis assay was performed using the Annexin V-FITC Apoptosis Detection Kit (Sigma A9210). Assays were performed according to the manufacturer's protocol."}, "SYO1 cells [7]": {"tested_on": "SYO1 cells", "experiment": "Apoptosis assay, Annexin V-FITC Apoptosis Detection Kit", "type": "cell-based, human", "details": "SYO1, 8 days, compared to DMSO controls", "experimental": "as §6"}, "[8]": {"molecular_target": "T1, Nanoluciferase-BRD9 fusion protein (Homo sapiens, UniProt Q9H8M2)", "T1 construct": "fused on or other part: 3xFLAG tag and Nanoluciferase (NLuc) as reporter handle, fused to BRD9. b953 puts them at the N-terminus", "T1 sequence (Q9H8M2 134-240 limits assumed)": "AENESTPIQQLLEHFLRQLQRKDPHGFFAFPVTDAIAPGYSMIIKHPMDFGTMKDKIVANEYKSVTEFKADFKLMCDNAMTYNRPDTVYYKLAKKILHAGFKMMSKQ", "experiment": "SYO1 BRD9 NanoLuc degradation assay", "type": "cell-based", "details": "6 hours incubation; read-out: SYO1 BRD9-NanoLuc degradation IC50", "experimental": "Procedure: A stable SYO-1 cell line expressing 3×FLAG-NLuc-BRD9 was generated. On day 0 cells were seeded in 30 μL media into each well of 384-well cell culture plates. The seeding density was 8000 cells/well. On day 1, cells were treated with 30 nL DMSO or 30 nL of 3-fold serially DMSO-diluted compounds (10 points in duplicates with 1 μM as final top dose). Subsequently plates were incubated for 6 hours in a standard tissue culture incubator and equilibrated at room temperature for 15 minutes. Nanoluciferase activity was measured by adding 15 μL of freshly prepared Nano-Glo Luciferase Assay Reagent (Promega N1130), shaking the plates for 10 minutes and reading the bioluminescence using an EnVision reader.\nResults: The Inhibition % was calculated using the following formula: % Inhibition=100×(LumHC−LumSample)/(LumHC−LumLC). DMSO treated cells are employed as High Control (HC) and 1 μM of a known BRD9 degrader standard treated cells are employed as Low Control (LC)."}}, "note": "“Also recorded” adds a separate entry of the source."}
{"smiles": "COc1cc(-c2cn(C)c(=O)c3cnc(N4CCC4)cc23)cc(OC)c1CN1CCC(CN2CCC3(CC2)CN(c2ccc4c(c2)C(=O)N(C2CCC(=O)NC2=O)C4)C3)CC1", "note": "(racemic) [racemate of the free base of the compound of Formula I]", "values": [{"measurement": "dissolution at pH 3", "setting": "[1]", "value": "complete dissolution"}]}
{"smiles": "COc1cc(-c2cn(C)c(=O)c3cnccc23)cc(OC)c1CN(C)CC(=O)NCCOCCOCCNc1cccc2c1C(=O)N(C1CCC(=O)NC1=O)C2=O", "note": "(centres unmarked) [Compound 1]", "values": [{"measurement": "growth of synovial sarcoma cell lines", "setting": "[2]", "value": "inhibition of the growth of the cells"}, {"measurement": "growth of non-synovial control cancer cell lines", "setting": "[3]", "value": "does not result in inhibition of the growth"}, {"measurement": "growth of synovial sarcoma cell lines", "setting": "[4]", "value": "inhibition of the growth of the cells; also recorded: most significant growth inhibition in all synovial cell lines"}, {"measurement": "growth of non-synovial control cancer cell lines", "setting": "[5]", "value": "did not result in inhibition of the growth"}, {"measurement": "cells in the S-phase of the cell cycle", "setting": "SYO1 cells [6]", "value": "reduced numbers of cells in the S-phase of the cell cycle"}, {"measurement": "early- and late-apoptotic cells", "setting": "SYO1 cells [7]", "value": "increased numbers of early- and late-apoptotic cells"}]}
{"smiles": "[2H]C([2H])([2H])Oc1cc(-c2cn(C)c(=O)c3cnc(N4CCC4)cc23)cc(OC([2H])([2H])[2H])c1CN1CCC(CN2CCC3(CC2)CN(c2ccc4c(c2)C(=O)N(C2CCC(=O)NC2=O)C4)C3)CC1", "note": "(centres unmarked) [Compound D2]", "values": [{"measurement": "DC50", "setting": "[8]", "value": 0.18, "unit": "nM"}]}
